Experimental data reported in US8900444B2, “Switchable hydrophilicity solvents and methods of use thereof” (Queen's University at Kingston, priority 2009, dated 2014).
Entries after “also recorded” stand apart in the source; their conditions may differ.

What was measured:
Format in all cases: physicochemical
[1] = Water miscibility of amidines in neutral form and after CO2
Text: This represents relatively hydrophilic character. The amidines A-D are unsatisfactory for use as a switchable hydrophilicity solvent because they are insufficiently hydrophobic in their amidine form. […] Since such amidines are not separable from water after switching from their hydrophilic to hydrophobic forms, they are unsuitable for use in the present invention.
Exposure of a 1:1 by volume mixture of two immiscible liquids, hydrophobic PA and water, to gaseous CO2, at 1 atmosphere, caused a conversion to a hydrophilic liquid comprising an aqueous solution of N,N,N′-tripropylbutyramidinium bicarbonate (PAB) (see FIG. 1 for the chemical scheme in which R^1-4 are propyl). NMR data for the PA/water system is presented in FIGS. 4 and 5 and IR data in FIG. 6. FIGS. 4A and 5A show ^1H and ^13C NMR data for PA. After switching, the detection of the N,N,N′-tripropylbutyramidinium bicarbonate salt was confirmed by ^1H and ^13C NMR as shown in FIGS. 4B and 5B.
Similarly, exposure of a 1:1 by volume mixture of two immiscible liquids, hydrophobic BA and water, to gaseous CO2, at 1 atmosphere, caused a conversion to a hydrophilic liquid comprising an aqueous solution of N,N,N′-tributylpentanamidinium bicarbonate (BAB) (see FIG. 1 for the chemical scheme in which R^1-4 are butyl). NMR data for the […] is presented in FIGS. 7 and 8 and IR data in FIG. 9. […] show ^1H and ^13C NMR data for BA. After switching, the detection of the N,N,N′-tributylpentanamidinium bicarbonate salt was confirmed by ^1H and ^13C NMR as shown in FIGS. 6B and 7B. The hydrophilic aqueous solution of BAB was converted back into hydrophobic BA and water by heating at 80° C.

[2] = Quantitative switching study of BA by 1H NMR (Example 1D)
Method: A methanol-d4 solution was prepared containing a sodium acetate internal standard (48.8 mM).
Two 4 mL glass vials containing 1.0 mL D2O and 0.5 mL BA were prepared and shaken. A 50 μL sample was withdrawn from each layer of one vial and combined with 0.50 mL of the sodium acetate standard solution in each of two NMR tubes: the top layer (BA) in a first tube; the bottom layer (aqueous) in a second tube.
Carbon dioxide was bubbled through the unsampled vial until the BA had completely converted to BAB, as evidenced by the disappearance of the top layer. The pH of the solution was measured using pH paper to be approximately 8-9. A 50 μL sample was withdrawn from the BAB/D2O solution and added to 0.50 mL of the sodium acetate standard solution in a third NMR tube.
The 4.0 mL vial from which the last NMR sample was withdrawn was then heated at 80° C. for 1 h and stirred by a magnetic stirrer. Bubbles of CO2 were observed escaping from the solution and a top layer, hydrophobic amidine, appeared. After cooling the vial to room temperature, a 50 μL sample was withdrawn from each layer and combined with 0.50 mL of the sodium acetate standard in two NMR tubes: the top layer (BA) in a fourth tube; the bottom layer (aqueous) in a fifth tube.
The NMR spectra of all five samples are shown in FIG. 10 with the first to fifth tubes shown from top to bottom. […] In addition, using the ‘c’ and ‘d’ protons provided stronger signals, to improve accuracy. Based on the strength of the ‘c’ and ‘d’ signals, 11% of the BA remained in the aqueous phase as BAB after the experiment
Using dioxane as the internal standard gave the same results (11% BAB retention in the aqueous phase) as sodium acetate.
The same experiment was repeated except that the temperature of the heating of the 4.0 mL vial was increased from 80° C. to 90° C. A similar retention of BAB in the aqueous phase (12%) was observed.

[3] = Separation of switchable solvent from soybean oil with CO2/carbonated water (Examples 2A, 2C)
Method: A 4 mL vial was prepared containing 1.0 mL D2O, 0.5 mL BA and 0.5 mL soybean oil. The vial was shaken thoroughly and allowed to settle, showing a 1.0 mL upper layer (soybean oil and BA) and a 1.0 mL lower layer (D2O). ^1H NMR samples (50 μL) were withdrawn from each layer and mixed with methanol-d4 (0.5 mL) containing a dioxane internal standard (51.5 mM). Another sample was withdrawn from the upper layer for ^1H NMR analysis in CDCl3, because soybean oil is not miscible with methanol. The same volume was discarded from the bottom layer to maintain the initial ratio.
CO2 was bubbled through the system for 1.5 h, at which time the top layer appeared to have halved in volume. Using the same system, ^1H NMR analysis was again conducted on both layers, the bottom layer in methanol-d4 and the top layer in CDCl3.
A 1.0 mL portion of the bottom layer was withdrawn and transferred to a new 4.0 mL vial. A magnetic stirrer was added and the vial was stirred at 80° C. for 1 h. Samples were withdrawn from both layers for ^1H NMR analysis in methanol-d4 with reference to the dioxane internal standard.
The switching behavior of BA in the presence of soybean oil was studied qualitatively and by ^1H NMR spectroscopy as shown in FIG. 11. The top spectrum is that of soy oil. The middle spectrum is that of the upper (organic) phase after the mixing of the BA, soy oil and D2O. This upper phase comprises soy oil and BA. The bottom spectrum is that of the upper (organic) phase after the addition of the CO2 trigger and comprises predominantly soy oil and any residual solvent.
The most informative ^1H NMR spectra in this experiment were those showing the separation of the soy oil and BA. Based on the integration of the peak corresponding to BA at 3.17 ppm in these spectra, 96% of the amidine was removed from the upper soybean oil layer after switching to its hydrophilic BAB form. Other spectra (not shown), collected in methanol-d4 with a dioxane internal standard, confirmed the switching behavior presented in Example 1 above, showing 11% retention of BA in the aqueous phase after heating.
It was possible to remove a high percentage of N1,N1,N4,N4-tetraethylbutane-1,4-diamine from the soybean oil be mixing with carbonated water. The percentage removal was 98.65%. In contrast, 96% of BA was removed from the soybean oil.

- miscibility with water after CO2 trigger (amidinium bicarbonate form) ([1]; CO2 and water): became miscible
- miscibility with water, neutral (unprotonated) amidine form ([1]; no CO2): immiscible with water
- BA remaining in the aqueous phase as BAB after heating ([2]; 80 °C, 1 h, sodium acetate internal standard): 11%
- BA recovered when amidinium bicarbonate solution is heated ([2]; from 1H NMR peak integrations): 89%
- solvent removed from soybean oil after switching to hydrophilic form ([3]; CO2 / carbonated water): 96%
- retention of BA in the aqueous phase after heating ([3]; soybean oil experiment, 80 °C, 1 h, dioxane internal standard): 11%
Structure (SMILES): CCCCN=C(CCCC)N(CCCC)CCCC [BA, N,N,N′-tributylpentanamidine]
- miscibility with soybean oil ([3]; neutral hydrophobic form): miscible with soy oil; also recorded: miscible with soybean oil
